The results in this text go back to ChEMBL document CHEMBL5360538, “Recent updates on 1,2,3-triazole-containing hybrids with in vivo therapeutic potential against cancers: A mini-review” (Eur J Med Chem, 2023).

Data set [1] can be described thus: Antiproliferative activity against […]-mediated human Doxorubicin-resistant 2008/MRP1 cells assessed as inhibition of cell growth incubated for 5 days by MTS assay. The format is functional, cell-based, Doxorubicin-resistant 2008/MRP1 cell. The settings on record: 2008/MRP1, 120 h. A general note: Tetrazolium assays rely on reduction of a dye to a coloured formazan, in cell work by metabolically active cells.

A short description of data set [2]: Antiproliferative activity against BCRP-mediated human Doxorubicin-resistant S1M180 cells assessed as inhibition of cell growth incubated for 5 days by MTS assay. The settings on record: S1-M1-80, 120 h. The format is functional, cell-based.
A short description of data set [3]: Antitumor activity against human Topotecan-resistant S1M180 cells over expressing BCRP xenografted in BALB/c nude mouse model assessed as reduction in tumor volume at 45 mg/kg, ip administered every 2 days for 6 times relative to control. The format is functional, Topotecan-resistant S1M180 cell. Also noted: scale not given: the % may be the effect or the level left. Particulars: time 12 day.

Data set [4] can be described thus: Cmax in BALB/c mouse at 45 mg/kg, ip measured up to 24 hrs. The format is ADME, organism-based. Also noted: time < 24 hrs, dose 45 mg/kg, route ip. Particulars: in vivo.
A short description of data set [5]: Half life in BALB/c mouse at 45 mg/kg, ip measured up to 24 hrs. The format is ADME, organism-based. Particulars: in vivo.
Data set [6] in a line: AUC(0 to infinity) in BALB/c mouse at 45 mg/kg, ip measured up to 24 hrs. In kind it is ADME, organism-based. Also noted: dose 45 mg/kg, time < 24 hrs, route ip. The settings on record: in vivo.
The nature of data set [7]: Antiproliferative activity against BCRP-mediated human Topotecan-resistant MCF7/MX100 cells assessed as inhibition of cell growth incubated for 5 days by MTS assay. The format is functional, cell-based. Particulars: MCF7/MX100, 120 h.
The nature of data set [8]: Tmax in BALB/c mouse at 45 mg/kg, ip measured up to 24 hrs. In kind it is ADME, organism-based. The settings on record: in vivo.
Data set [9] is described as follows: Antitumor activity against human Topotecan-resistant S1M180 cells over expressing BCRP xenografted in BALB/c nude mouse model assessed as fold change in topotecan level at 45 mg/kg, ip administered every 2 days for 6 times relative to control. In kind it is functional, Topotecan-resistant S1M180 cell. The settings on record: time 12 day. Background: A xenograft is tissue or cells of one species grown in another, often human tumour cells in immunodeficient mice.

Data set [10] in a line: Antiproliferative activity against BCRP-mediated human Topotecan-resistant S1M180 cells assessed as inhibition of cell growth incubated for 5 days by MTS assay. The format is functional, cell-based. Particulars: 120 h.
Data set [11] can be described thus: Antiproliferative activity against BCRP-mediated Topotecan-resistant HEK293/R2 cells assessed as inhibition of cell growth incubated for 5 days by MTS assay. The format is functional, cell-based. Particulars: Homo sapiens, HEK293/R2, 120 h.
The next data set has as its system A549/TR. Kind of data set: Antiproliferative activity against taxol-resistant human A549/Taxol cells assessed as inhibition of cell growth by MTT assay. In kind it is functional, cell-based.
Data set [12] concerns A549. As to the kind of experiment: Antiproliferative activity against human A549 cells assessed as inhibition of cell growth by MTT assay. The format is functional, cell-based.
Data set [13] relates to HepG2. As to the kind of experiment: Antiproliferative activity against human HepG2 cells assessed as inhibition of cell growth by MTT assay. The format is functional, cell-based.
A further data set concerns MDA-MB-231. Kind of data set: Antiproliferative activity against human MDA-MB-231 cells assessed as inhibition of cell growth by MTT assay. In kind it is functional, cell-based.
In data set [14] the test system is SGC-7901. Kind of data set: Antiproliferative activity against human SGC-7901 cells assessed as inhibition of cell growth by MTT assay. The format is functional, cell-based.
Data set [15] deals with A549. As to the kind of experiment: Antitumor activity against human A549 cells xenografted in BALB/c nude mouse model assessed as inhibition of tumor growth at 80 mg/kg, ip administered every other day for 7 times relative to control. The format is functional.
The next data set concerns MCF7. Kind of data set: cells. Particulars: Homo sapiens.
The test system of the next data set is HT-29. Kind of data set: Antiproliferative activity against human HT-29 cells assessed as inhibition of cell growth by MTT assay. The format is functional, cell-based.
The next data set has as its system Bel-7402. Kind of data set: Antiproliferative activity against human Bel-7402 cells assessed as inhibition of cell growth by MTT assay. The format is functional, cell-based.
For a further data set, the system named is NCI-H460. As to the kind of experiment: Antiproliferative activity against human NCI-H460 cells assessed as inhibition of cell growth by MTT assay. In kind it is functional, cell-based.
Data set [16] in a line: Antiproliferative activity against human IMR-90 cells assessed as inhibition of cell growth by MTT assay. The format is toxicity, cell-based.
Data set [17] deals with A549. As to the kind of experiment: Antitumor activity against human A549 cells xenografted in zebrafish model assessed as reduction in tumor focal area at 2.5 uM relative to control. In kind it is functional. Also noted: scale not given: the % may be the effect or the level left.
Data set [18] deals with Ehrlich. Kind of data set: Antitumor activity against mouse EAC cells implanted in Swiss albino mouse model assessed as increase in life span at 10 mg/kg, ip administered each day for 9 days and measured after 14 days relative to control. The format is functional. The settings on record: time 14 day.
Data set [19] deals with Ehrlich. As to the kind of experiment: Antitumor activity against mouse EAC cells implanted in Swiss albino mouse model assessed as tumor growth inhibition at 10 mg/kg, ip administered each day for 9 days and measured after 14 days relative to control. The format is functional. Particulars: 336 h, time 14 day.
Data set [20] has as its system BGC-823. Kind of data set: Antiproliferative activity against human BGC-823 cells assessed as inhibition of cell growth incubated for 72 hrs by MTT assay. Particulars: BGC-823, 72 h. The format is functional, cell-based.
Data set [21] has as its system SGC-7901. Kind of data set: Antiproliferative activity against human SGC-7901 cells assessed as inhibition of cell growth incubated for 72 hrs by MTT assay. The settings on record: SGC-7901, 72 h. In kind it is functional, cell-based.
Data set [22] concerns BGC-823. As to the kind of experiment: Potency index, ratio of 5-fluorouracil IC50 to test compound IC50 for antiproliferative activity against human BGC-823 cells assessed as inhibition of cell growth incubated for 72 hrs by MTT assay. In kind it is functional.
For data set [23], the system named is MGC-803. As to the kind of experiment: Antitumor activity against human MGC-803 cells xenografted in BALB/c nude mouse model assessed as inhibition of tumor growth at 60 mg/kg, IG administered daily for 21 days relative to control. The format is functional. Particulars: MGC-803, po, 504 h, time 21 day.
Data set [24] has as its system MGC-803. Kind of data set: Antiproliferative activity against human MGC-803 cells assessed as inhibition of cell growth incubated for 72 hrs by MTT assay. The format is functional, cell-based. The settings on record: MGC-803, 72 h.
Data set [25] has as its system SGC-7901. As to the kind of experiment: Potency index, ratio of 5-fluorouracil IC50 to test compound IC50 for antiproliferative activity against human SGC-7901 cells assessed as inhibition of cell growth incubated for 72 hrs by MTT assay. In kind it is functional.
Data set [26] has as its system MGC-803. As to the kind of experiment: Potency index, ratio of 5-fluorouracil IC50 to test compound IC50 for antiproliferative activity against human MGC-803 cells assessed as inhibition of cell growth incubated for 72 hrs by MTT assay. In kind it is functional.
Data set [27] deals with 4T1. Kind of data set: Antitumor activity against mouse 4T1 cells implanted mouse model assessed as inhibition of tumor growth at 15 mg/kg, ip relative to control. The format is functional.
Data set [28] concerns HepG2. Kind of data set: Antiproliferative activity against human HepG2 cells assessed as inhibition of cell growth incubated for 72 hrs by MTT assay. In kind it is functional, cell-based. The settings on record: HepG2, 72 h.
In another data set the test system is Hep 3B2. As to the kind of experiment: Antiproliferative activity against human Hep3B cells assessed as inhibition of cell growth incubated for 72 hrs by MTT assay. In kind it is functional, cell-based.
Data set [29] has as its system H22. Kind of data set: Antitumor activity against […] cells xenografted in BALB/c mouse model assessed as inhibition of tumor growth at 15 mg/kg, ip administered every 2 days for 15 days relative to control. The settings on record: H22, 360 h, time 15 day. In kind it is functional.
In data set [30] the test system is H22. Kind of data set: Antitumor activity against […] cells xenografted in BALB/c mouse model assessed as inhibition of tumor growth at 45 mg/kg, ip administered every 2 days for 15 days relative to control. In kind it is functional. The settings on record: H22, 360 h, time 15 day.
A further data set concerns NCI-H1975. Kind of data set: Antiproliferative activity against human NCI-H1975 cells assessed as inhibition of cell growth by MTT assay. In kind it is functional, cell-based.
In data set [31] the test system is PC-9. Kind of data set: Antiproliferative activity against human PC-9 cells assessed as inhibition of cell growth by MTT assay. In kind it is functional, cell-based.
Data set [32] deals with PC-9. Kind of data set: Antitumor activity against human PC-9 cells xenografted in NSG mouse model assessed as inhibition of tumor growth at 25 mg/kg, ip qd administered every day for 7 consecutive days relative to control. The format is functional. The settings on record: PC-9, 168 h, time 7 day.
For data set [33], the system named is 4T1. Kind of data set: Antitumor activity against mouse 4T1 cells overexpressing IDO1 implanted in BALB/c mouse model assessed as inhibition of tumor growth at 25 mg/kg, ip qd administered every day for 8 consecutive days and measured after 14 days relative to control. The format is functional. Particulars: 4T1, 336 h, time 14 day.

Take `COC(=O)c1cccc(COc2c(-c3ccc(OCCOCCc4cn(CN(Cc5ccccc5)Cn5cc(CCOCCOc6ccc(-c7oc8ccccc8c(=O)c7OCc7cccc(C(=O)OC)c7)cc6)nn5)nn4)cc3)oc3ccccc3c2=O)c1`: the EC50 in [1], in [2], in [7], in [10] and in data set [11] was 3.3 nM each time. Moreover, the Activity in [3] came to 40%. The same molecule came in with a Cmax in [4] of 15700 ng/mL. The same molecule gave a half-life in data set [5] of 10.6 h. The molecule further yielded an AUC(0-inf) in data set [6] of 83500 ng·h/mL. Besides, in data set [8], the Tmax stood at 3 h. Besides, the “fold change (FC)” value in data set [9] was determined as 2.

Take `COc1cc(C(=O)c2nn(-c3ccccc3F)nc2N2CC(O)C2)cc(OC)c1OC`: the IC50 in the data set with A549/TR was 65.4 nM; in the data set on A549 [12] it was 63 nM; in the data set on HepG2 [13], 65.4 nM; in the data set with MDA-MB-231, 65.4 nM; in the data set with SGC-7901 [14], 63 nM; in the data set on MCF7, 63 nM. In addition, the IC50 with HT-29, in the data set on Bel-7402 and with NCI-H460 was 65.4 nM each time. For the same molecule, in the data set with A549 [15], the inhibition in vivo at 80 mg/kg stood at 60%.

`COc1cc(/C=C/C(=O)C(Cc2cn(Cc3ccc(Cl)c(Cl)c3)nn2)C(=O)/C=C/c2ccc(O)c(OC)c2)ccc1O`: the IC50 is 2270 nM in the data set with A549 [12] and above 100000 nM in [16]. The Activity in the data set with A549 [17] was 39.07%.

As to `COc1ccc(-c2ccc3c(c2)OCC(=O)N3Cc2cn(-c3cc(Cl)cc(Cl)c3)nn2)cc1`, the Activity with Ehrlich [18] turned out to be 68.94%. For the same molecule, in the data set on Ehrlich [19], the inhibition in vivo at 10 mg/kg worked out at 54%.

As for `Cc1cc(=O)oc2cc(OCc3cn(-c4ccc(S(N)(=O)=O)cc4)nn3)ccc12`, the IC50 in the data set with BGC-823 [20] was found to be 400 nM; in the data set on SGC-7901 [21] it was 3500 nM; with MGC-803 [24] it was 3400 nM. Moreover, the “Ratio IC50” value in the data set with BGC-823 [22], with SGC-7901 [25] and in the data set on MGC-803 [26] was 4.1 each time. Further, the inhibition in vivo at 60 mg/kg in the data set with MGC-803 [23] turned out to be 64.2%.

Consider `Clc1ccc(N/N=C/c2cn(-c3cc(Cl)cc(Cl)c3)nn2)cc1`, for which the inhibition in vivo at 15 mg/kg in the data set on 4T1 [27] was above 60%. In the data set on MCF7, this molecule gave an IC50 of 3200 nM.

Take `COc1cc(C(=O)c2nn(-c3ccccc3)nc2N2CCC(N)CC2)cc(OC)c1OC`: the values for the IC50 in the data set with HepG2 [28] and with Hep 3B2 were 59.6 nM and 40.9 nM, respectively. Further, the inhibition in vivo at 15 mg/kg with H22 [29] turned out to be 66%. Also, in the data set on H22 [30], the inhibition in vivo at 45 mg/kg came to 82%.

Take `COCCOc1cc2ncnc(Nc3cccc(-c4cn(Cc5cc(Br)cc(Br)c5)nn4)c3)c2cc1OCCOC`: the IC50 with A549 [12], with NCI-H1975, with PC-9 [31] and with NCI-H460 was 3310 nM each time. In addition, the inhibition in vivo at 25 mg/kg was found to be 90% in the data set on PC-9 [32] and 64% in the data set on 4T1 [33].

For orientation: EC50 means the concentration that produces a half-maximal response. As a reminder, the Cmax is the maximum level reached in the sampled fluid or tissue. As a reminder, the half-life is the time needed for the level to fall by half in the phase considered. A word on the AUC(0-inf): it is the area under the concentration-time curve extrapolated to infinity. The term Tmax denotes the time from dosing to the highest level. For orientation: IC50 means the concentration needed to halve the response being measured. By inhibition in vivo is commonly meant the relative decrease from the control value, in per cent.
